Data as given in patent publication US20150157648A1, “NUTRITIONAL APPROACH TO IMPROVING ATHLETIC PERFORMANCE AND REDUCING INJURY WITH L-ERGOTHIONEINE AND/OR VITAMIN D2” (priority 2012, published 2015).

Legend:
[1] = after mushroom consumption, healthy men; cited from earlier work
IL-6 = IL-6 ELISA of whole blood cell lysate from alpha synuclein transgenic mice; format: in vivo; details: one remaining sample per treatment group
Description: We pursued this effect in our mice since the role of IL-6 and other neuroimmune factors need to be elucidated on PD. Alpha synuclein transgenic mice expressing the human gene for alpha-synuclein were treated with the medical food ErgoD2™ (Pleurotus; Table 3) or N-Acetylcysteine (NAC), and whole blood cell lysate samples from these mice were evaluated in triplicate using an ELISA for the presence of IL-6. The results were compared to those from untreated and wild-type controls.
A serial dilution of provided standard solution allowed for the creation of a standard curve following absorbency reading. An exponential regression of this curve was used to extrapolate the concentration of IL-6 in the lysate samples based on their final absorbency values and accounting for dilution factors of the samples.
Lysate samples taken from subjects #222 and #321 were clotted. A small amount of each was used during assay, but their relatively high corresponding dilution factors call into question the findings based on these samples.

[2] = tested on: SNCA transgenic mouse model of PD; assay: grip strength task in SNCA transgenic mouse model of PD; format: in vivo; details: PD model mice, three months of treatment
From the text: Matched cohorts of an SNCA transgenic mouse model of PD were used to measure the therapeutic efficacy of the medical food formulation ErgoD2TM, created from a single mushroom species, Pleurotus […]. The outcomes measurements assessed improvement in grip strength and alpha-synuclein levels in the cortex and/or midbrain of the PD animals. […] No detectable motor behavior impairments, autonomic abnormalities, olfactory dysfunction, dopaminergic deficits, Lewy body inclusions or neurodegeneration are associated with α-synuclein expression in these mice (Kuo et al., 2010). As outlined in the results section, the mice were grouped at ten (10) mice/cohort and were fed a purina diet for three months with and without addition of the medical food ErgoD2TM, provided by Entia Biosciences, Inc. Three (3) test diets were created with the assistance of Carrie Schultz, Ph.D., Land O'Lakes Purina Feed, and each diet was color-coded. The control/placebo mouse diet consisted of Purina Modified LabDiet® (RMH 3000). The two treatment diets were RMH 3000 supplemented with (i) synthetic N-Acetyl Cysteine (NAC) @ 0.015% of total weight and (ii) the medical food ErgoD2TM @ 0.5% of total weight. […] The mouse is then pulled back gently until the grip is released and peak force at the point of release is recorded in Kg. […]

glutathione (GSH) = assay: kinetic assay of plasma glutathione (GSH) in Pac-Tg (SNCA) transgenic mice; format: in vivo; details: trend only: p=0.10 (Pleurotus), p=0.09 (NAC)
Description: Our Pac-Tg (SNCA) mice transgenic mice express the human gene for human alpha-synuclein and these were assigned one of four treatment paradigms (including no treatment). Plasma samples taken from these mice were evaluated in duplicate using a kinetic assay protocol for the presence of glutathione (GSH), a measure of resilience to oxidative stress. The tested subject groups were treated with one of the following: Blazei Mushroom, Pleurotus mushroom, or n-acetyl cysteine (NAC). The results for these groups were compared to those for both untreated and wild-type controls.
Data. A serial dilution of provided standard solution allowed for the creation of a standard curve following kinetic absorbance readings (FIGS. 6A and B). The change in absorbance (Vmax) over five minutes (six absorbance readings) was calculated for each standard and plotted against each standard's known GSH concentration. […] The change in absorbance for the second standard was calculated using only the first two kinetic readings (t=0, t=1) for the same reason. […] A linear regression of the resulting standard curve allowed for extrapolation of GSH levels in the assayed plasma samples based on their changes in absorbance (Vmax) over six minute-reads.
Following tabulation of the data, results were omitted if they were not reproducible in duplicate using all six kinetic readings and within 30% precision. […]

alpha-synuclein = alpha-synuclein ELISA of plasma, cortex and midbrain of SNCA transgenic mice; format: in vivo, mouse; details: three months of diet; untreated controls 2.52±0.28
From the text: Matched cohorts of an SNCA transgenic mouse model of PD were used to measure the therapeutic efficacy of the medical food formulation ErgoD2TM, created from a single mushroom species, Pleurotus […]. The outcomes measurements assessed improvement in grip strength and alpha-synuclein levels in the cortex and/or midbrain of the PD animals. […] No detectable motor behavior impairments, autonomic abnormalities, olfactory dysfunction, dopaminergic deficits, Lewy body inclusions or neurodegeneration are associated with α-synuclein expression in these mice (Kuo et al., 2010). As outlined in the results section, the mice were grouped at ten (10) mice/cohort and were fed a purina diet for three months with and without addition of the medical food ErgoD2TM, provided by Entia Biosciences, Inc. Three (3) test diets were created with the assistance of Carrie Schultz, Ph.D., Land O'Lakes Purina Feed, and each diet was color-coded. […] Alpha-synuclein was measured using an ELISA kit (Invitrogen, Hu α-Synuclein ELISA Kit) according to the manufacturer's protocol. The α-synuclein concentration of each 1 mL homogenized midbrain lysate was calculated by interpolating absorbance readings to a standard curve and adjusting for necessary dilution factors and protein equivalencies. The mean α-synuclein concentration of the samples in each treatment group was then calculated. […]

Drosophila melanogaster = assay: survival of Drosophila under Paraquat-induced oxidative stress; format: in vivo; details: for effect on Paraquat-induced oxidative stress (in words): single nutrient, pure form
Description: The effect of Agaricus Blazei without enrichment, with Vitamin D2 enrichment, pure Vitamin D2 and control (vehicle for the delivery) on the survival rate of Drosophila melanogaster under Paraquat-induced oxidative stress condition was tested. The study focused on the control of Paraquat induced oxidative stress/biologic death. Paraquat is a very potent oxidative stress inducing chemical and causes death in animals and plants by the toxicity of released free radicals. Paraquat (10 mM concentration) (Sigma Aldrich) was used to chemically induce oxidative stress. Paraquat is the trade name for N,N′-dimethyl-4,4′-bipyridinium dichloride, a widely used herbicide. Paraquat, a viologen, is quick-acting and non-selective, killing green plant tissue on contact. It is also toxic to humans when swallowed. This is the most standard chemical used in experimental induction of oxidative stress using the Drosophila model system. It catalyzes the formation of reactive oxygen species (ROS). Paraquat will undergo redox cycling in vivo, gets reduced by an electron donor such NADPH, before being oxidized by an electron receptor such as dioxygen to produce superoxide, a major ROS.
The following materials and methods were utilized. Vials containing 10 mM Paraquat (from Sigma Aldrich) in 5 ml of 1.2% Low melting point Agarose medium were prepared. A strip of half moist filter paper was inserted in the medium (with the wet end in). Yeast paste containing 1% concentration (w/w) of the various test materials (see above) mixed to homogeneity was prepared. Yeast paste without drug was used as control. Uniform aliquot (˜300 mg) of yeast paste with or without the test material) was applied to vials in such a way that yeast paste was on the glass surface and covered the dry end (top) of the filter paper strip. Freshly enclosed wild type isogenized Canton-S males and females were collected and starved on 1% agar medium for 5-6 hours. […] Flies were transferred once in 2 days and the number of flies surviving at each transfer was recorded.

[3] = tested on: Alzheimer's disease mutant fruit fly; assay: survival and life span of Alzheimer's disease (APP over-expression) Drosophila model; format: in vivo; details: APP induced in central brain by GAL4 driver
From the text: Type of Model (with specific Drosophila model of neurodegeneration, with references). The targeted over/ectopic expression of APP in the brain using a UAS promoter driven APP transgene, induced by a specific GAL4 trans-driver in the brain of a Drosophila model system, was used for this Example. Below is a reference for such over-expression of APP in the Drosophila model system and the combination gives a fully penetrant AD with limited life-span.
β-Amyloid peptides and amyloid precursor protein (APP) play a deterministic role in Alzheimer's disease (AD). In Drosophila, the targeted expression of the key genes of AD, APP, causes generation of β-amyloid plaques and age-dependent neurodegeneration as well as progression to semi lethality, a shortened life span; genetic manipulations or pharmacological treatments with secretase inhibitors influenced the activity of the APP-processing proteases and modulated the severity of the phenotypes (Greeve I., et al., J. Neuroscience 24, 3899-3906 (2004)). The AD strain lives only for a few days after their eclosion (birth) as opposed to 65 days or more for wild type normal strains.
We determined the extension of life span in the mutant strain for each test compound. We used a specific GAL4 driver that induces the APP gene in the central brain area at high levels (see above) and results in a fully penetrant lethality within a 2-3 weeks period.

C[N+](C)(C)[C@@H](Cc1c[nH]c(=S)[nH]1)C(=O)[O-] [ET, L-Ergothioneine]
time to peak of ET in red blood cells (RBC) [1]: 2 h

CC(=O)N[C@@H](CS)C(=O)O [NAC, N-Acetylcysteine]
IL-6 more than the untreated group (IL-6): 8.7 pg/mL
IL-6 more than the wild-type group (IL-6): 9.5 pg/mL
grip testing (in words) [2]: statistically significant improvement
plasma glutathione concentration vs. untreated mice (glutathione (GSH)): higher concentrations of glutathione
mean midbrain α-synuclein concentration (alpha-synuclein): 2.17 ± 0.31 µg/mL

C=C1CC[C@H](O)C/C1=C/C=C1\CCC[C@]2(C)[C@@H]([C@H](C)CCCC(C)C)CC[C@@H]12 [Vitamin D3, cholecalciferol]
effect on Paraquat-induced oxidative stress (in words) (Drosophila melanogaster): no beneficial effect
survival rate of AD flies versus control [3]: no such effect

C=C1CC[C@H](O)C/C1=C/C=C1\CCC[C@]2(C)[C@@H]([C@H](C)/C=C/[C@H](C)C(C)C)CC[C@@H]12 [pure Vitamin D2, Ergocalciferol]
survivability under Paraquat-induced oxidative stress (Drosophila melanogaster; 10 mM Paraquat, 1% (w/w) test material in yeast paste, 10 days, 25 degrees C): 13%+/−3%
effect on Paraquat-induced oxidative stress (in words) (Drosophila melanogaster): no beneficial effect
survival rate of AD flies versus control [3]: no such effect
